Test results reported in patent US8133694B2, “Functional vitamin D derivatives and method of determining 25-hydroxy- and 1α, 25-dihydroxy vitamin D” (Immundiagnostik AG, priority 1998, dated 2012).

Key:
[1] = system: vitamin D-binding protein; experiment: Competitive protein binding analysis (CBPA) with 3H-25-OH-vitamin D as tracer, cross reactions; parameters: species or system goat
Description: In each case 100 μl vitamin D binding protein, isolated from goat serum (1:15000 in assay buffer with 3% (w/v) PEG 6000) together with 10 μl standard, control or sample (10 μl result from the sample preparation) was placed in the wells. The microtitration plate was incubated for 24 hours at 4EC in the dark and subject to shaking. Then, the solution was removed from the wells and the wells washed five times in each case with 200 μl washing buffer.
Insofar as no other indication is given, all reagents, buffers and materials were the same as in above-mentioned Example 3. There served as competitive binding partner (tracer) tritium-labelled 25-OH-vitamin D3. Differing from Example 3, the measurement samples were purified by means of extraction (into individual values). For this purpose, in each case 50 μl sample [non-specific assay buffer NSB, standard, control, patients sample (plasma, serum or urine)] was introduced into a 1.5 ml disposable reaction container, 200 μl acetonitrile added, mixed, the container walls centrifuged free, and the mixture incubated for 20 to 30 minutes at 4EC. The mixture was centrifuged at 1700×g for 10 minutes. The determinations were effected with the results using duplicate values.
For this purpose 25 μl clear result was transferred to a glass test tube (or into a special-RIA-container from Sarstedt, Darmstadt) and 10 μl tracer (3H-25-OH-D), 300 μl assay buffer and 100 μl vitamin D-binding protein (not in NSB) added. The test tube contents were mixed, incubated for one hour at 4EC and, to remove non-bound radioactive tracer, 100 μl activated charcoal suspension (activated charcoal containing phosphate buffer with 0.1% NaN3) was added. The test tube content was mixed, incubated for 3 to 5 minutes at 4EC, and the active charcoal pelletized by means of centrifuging for 10 minutes at 1700×g. Then, in each case 400 μl of the result was transferred to a counter container (7 ml) and, after the addition of 2 ml scintillator liquid such as Aquasafe™ 300 or HiSafe™ III, the radioactivity present in the result was counted (2 minutes in a beta-counter). […]

[2] = system: vitamin D binding protein from goat serum; experiment: RIA for determining competition with 3H-25-OH-vitamin D3 and displacement efficiency; parameters: unit not given here; details: tracer 3H-25-OH-vitamin D3
Description: Displacement efficiencies on vitamin D binding protein from goat serum and competition with ^3H-250H-vitamin D3 were measured for three vitamin D derivates using a RIA. The tested derivatives were 25-OH-vitamin D, biotinylated 25-OH-vitamin D3 of example 1 and 25-OH-D3 dimer of example 10.
The dimer having a short spacer has a lower displacement efficiecy than the corresponding biotinylated compound with the longer spacer group. […] For comparision, compound C in WO 97/24127 (Holick et al.) could only displace the tritiated compound from human vitamin D binding protein when it was present in eleven-fold excess. […] A longer spacer group in the vitamin D dimer leads to a higher affinity to DBP. An eleven fold lower affinity on the other hand is typical for vitamin D derivatives lacking the 25 hydroxy group which is essential for high affinity to vitamin D binding protein DBP.

[3] = Stability of the 25-OH-D3-biotin compound in protonic solvent (NMR, HPLC); assay type: physicochemical; details: protonic solvent pH 4-5; for HPLC analysis, compound intact: 200 days
Description: In each case 20 mg purified 25-OH-D3-biotin compound (25-OH-vitamin D3-3β-3′[6-N-(biotinyl)-hexamido]amidopropylether) from Example 1 was placed in an NMR test tube to which 1 ml solvent was added. The solvent was a mixture of deuterium chloroform:deuterium acetonitrile: D2O in the ratio 3:2:1 with a pH-value between 4 and 5. The samples were stored for 200 days under the conditions set out below and the NMR spectra were investigated at regular intervals. • Sample 1: light excluded at −20EC; • Sample 2 light excluded at +4−6EC; • Sample 3: light excluded at room temperature; • Sample 4: subject to strong light (on a window ledge) at room temperature.
An HPLC analysis confirmed that samples 1 and 2 were intact even after 200 days in protonic solvent.

[4] = 250 nmol/l added to serum treated with activated charcoal

SMILES	cross-reaction [1, 4]	B/Bo ([2]; Conc. 0.1 ng/ml)	B/Bo ([2]; Conc. 1 ng/ml)	B/Bo ([2]; Conc. 10 ng/ml)	B/Bo ([2]; Conc. 100 ng/ml)	B/Bo ([2]; Conc. 1000 ng/ml)	other results
C=C1/C(=C\C=C2/CCC[C@]3(C)[C@@H]([C@H](C)CCCC(C)(C)O)CC[C@@H]23)C[C@@H](O)C[C@@H]1O [1,25-(OH)2-vitamin D3]	no cross-reactivity	–	–	–	–	–	–
C=C1CCC(O)C/C1=C\C=C1\CCCC2(C)C1CCC2C(C)CCC(O)C(C)(C)O (centres unmarked) [24,25-(OH)2-vitamin D3]	100%	–	–	–	–	–	–
C=C1CC[C@H](O)C/C1=C/C=C1\CCC[C@]2(C)[C@@H]([C@H](C)CCCC(C)(C)O)CC[C@@H]12 [25-OH-D3, 25-OH-vitamin D3, reference compound]	–	100	92	33	10	7	–
C=C1CC[C@H](O)C/C1=C/C=C1\CCC[C@]2(C)[C@@H]([C@H](C)/C=C/[C@H](C)C(C)(C)O)CC[C@@H]12 [25-OH-vitamin D2]	–	–	–	–	–	–	cross-reaction ([1]; 125 nmol/l added to serum treated with activated charcoal): 60%
C=C1CC[C@H](OCCCNC(=O)CCCCCNC(=O)CCCCC2SCC3NC(=O)NC32)C/C1=C/C=C1\CCC[C@@]2(C)C1CC[C@@H]2C(C)CCCC(C)(C)O (stereo partly drawn) [Biotin-25OH-D3, 25-Hydroxy vitamin D3-3β-3′[6-N-(biotinyl)hexamido]-amidopropylether]	–	100	99	63	15	8	HPLC analysis, compound intact ([3]; Sample 1: light excluded at -20EC): intact; HPLC analysis, compound intact ([3]; Sample 2: light excluded at +4-6EC): intact; HPLC analysis, compound still intact ([3]; Sample 3: light excluded at room temperature, after 100 days): more than 78%; degradation ([3]; Sample 4: strong light (window ledge) at room temperature): degraded after two months
